How the values were obtained:
[1] = tested on: C57BI/6J mice; experiment: Mouse food addiction operant protocol with prebiotics in drinking water; type: in vivo; settings: for mice that achieved the addiction criteria (2-3 criteria, considered addicted): 1% in drinking water during whole protocol, 120 sessions, late period (95-112 sessions), n=12 per group, 41.67% of control mice addicted, χ^2=8.57 control vs lactulose, χ^2=12 control vs rhamnose, P<0.01; for persistence of response: compared to control group
Description: Mice were trained to obtain chocolate-flavored pellets (n=59) in operant boxes during 98 sessions in 1 h-daily self-administration sessions. The operant boxes and daily self-administration protocol of food addiction were accurately described in previous publications (Martín-García E, Domingo-Rodriguez L, Maldonado R. An Operant Conditioning Model Combined with a Chemogenetic Approach to Study the Neurobiology of Food Addiction in Mice. Bio-Protocol 2020;10:1-23. doi:10.21769/bioprotoc.3777; Domingo-Rodriguez L, Ruiz de Azua I, Dominguez E, et al. A specific prelimbic-nucleus accumbens pathway controls resilience versus vulnerability to food addiction. Nat Commun 2020;11:1-16. doi:10.1038/s41467-020-14458-y). Mice were under fixed-ratio 1 (FR1) during six sessions, followed by 92 sessions under FR5. The food addiction-like behavior was evaluated during this operant conditioning maintained by food at a late period (82-92 sessions) to classify mice into the addictive phenotype considering three food addiction-like criteria (1) persistence of response, (2) motivation, and (3) compulsivity. These criteria summarized the main features of the human food addiction diagnosis through the Yale Food Addiction Scale (YFAS 2.0) based on the 5th edition of the diagnostic and statistical manual of mental disorders (DSM-5) for substance use disorders. The three behavioral tests performed to evaluate these three addiction-like criteria (responding during the pellet-free period for the persistence of response, progressive ratio schedule for motivation, and shock-associated unconditioned stimulus for compulsivity) were performed as previously described (Mancino S, Burokas A, Gutiérrez-Cuesta J, et al. Epigenetic and Proteomic Expression Changes Promoted by Eating Addictive-Like Behavior. Neuropsychopharmacology 2015;40:2788-800. doi:10.1038/npp.2015.129). At the end of the late period, animals were categorized into two subpopulations, food-addicted or nonaddicted, depending on the number of addiction-like criteria achieved. Mice with two or three addiction-like criteria were considered addicted, and mice with 0 or 1 addiction-like criteria were considered nonaddicted.
Additionally, four additional phenotypic traits were also evaluated as factors of vulnerability, impulsivity, cognitive inflexibility, appetitive and aversive cue-reactivity. • Impulsivity, the inability to stop a response once it is initiated, was measured as the number of non-reinforced active responses during the time-out period (10 s) after each pellet delivery. This impulsivity-like behavior was delimited to the three consecutive days before the progressive ratio. • Cognitive inflexibility is the incapacity to shift responding to stimuli that have previously predicted the availability of reward. […] In the next 30 min, the cue light associated with pellet delivery during a typical operant training session was illuminated with no contingent pellet reinforcement. To signal the change in the schedule, the cue light was presented twice non-contingently and for 4 s. • Aversive cue-reactivity: To study the conditioning to an aversive stimulus (grid floor), non-reinforced active responses during the following session after the shock test were measured. Mice were placed in the operant box for one hour with the same grid floor used during the shock test. However, during this session, pressing the active lever had no consequences: no shock, no chocolate-flavored pellets, and no cue light.
Mice (n=36) were trained in the same experimental conditions previously described to obtain chocolate flavored pellets during 120 sessions of a 1h-daily self-administration protocol. The duration of training was enhanced in this experiment in order to allow a longer exposure to the prebiotics that could facilitate their effects to modify the behavioral responses. Mice were trained for six days at FR1, followed by 114 FR5 sessions. […]

[2] = tested on: Blautia; experiment: Quantitative PCR of Blautia in mouse feces after prebiotic treatment; type: in vivo; settings: 1% in drinking water, feces collected at end of protocol, qPCR, vs control
Description: At the end of the protocol, feces were collected to quantify Blautia abundance in the gut by quantitative PCR. DNA was extracted from 0.18-0.2g of feces using QIAamp® Fast DNA Stool Mini kit (Qiagen, Germany) and was stored at -20°C.
To quantify the Blautia in the feces, primers g-Blau-R (5'-[…]-3') SEQ ID No 3 and g-Blau-F (5'- […]- 3'), targeting SEQ ID No 4 16S rRNA gene, were used, as previously described. Each reaction mixture (10 µl) comprises LightCycler 480 SYBR Green I Master (Roche Life Science, Germany) and 1ng/µl of genomic DNA. The amplification program consisted of one cycle at 95°C for 10 min, followed by 40 cycles at 94°C for 20 s, 55°C for 20 s, and 60°C for 40 s. The fluorescent products were detected in the last step of each cycle. qPCR amplification and detection were performed in 384-well optical plates with an QuantStudio 12K Flex Real-Time PCR System (Applied Biosystems). A melting curve analysis was performed at the end of the experiment to determine the specificity of an assay. The melting program consisted of the first step of 95°C for 15 s, the second step of 60°C for 1 min, and the last dissociation step of 95°C for 15 s. […]
A qPCR was performed to confirm the effectiveness of targeted prebiotics in increasing Blautia genus abundance in the gut. Based on the generated standard curve, the amount of Blautia per gram of feces was determined. […]

[3] = tested on: Blautia; settings: Reichardt et al. 2018 (rhamnose); Cui et al. 2021 (lactulose); cited from earlier work
[4] = 1% in drinking water, late period

Row | Compound | mice that achieved the addiction criteria (2-3 criteria, considered addicted) [1] | cognitive inflexibility ([1]; 1% in drinking water, late period, compared to control (U=35.50, P<0.05) and lactulose (U=17.00, P<0.001)) | persistence of response [1, 4] | compulsivity in seeking for palatable food ([1]; 1% in drinking water, late period, compared to control mice, Mann-Whitney's U=31.50, P<0.01) | motivation for chocolate-flavored pellets ([1]; 1% in drinking water, late period, rhamnose compared to lactulose, Mann-Whitney's U=31.50, P<0.05) | Blautia abundance in the gut (amount of Blautia per gram of feces) [2] | amount of Blautia in mice feaces [3]
1 | C[C@@H]1OC(O)[C@H](O)[C@H](O)[C@H]1O (stereo partly drawn) [rhamnose, (3R,4R,5R,6S)-6-methyloxane-2,3,4,5-tetrol] | none | lower | similar | decreased | reduced | significantly increased | increases
2 | OC[C@H]1O[C@@H](O[C@@H]2[C@@H](CO)OC(O)(CO)[C@H]2O)[C@H](O)[C@@H](O)[C@H]1O (stereo partly drawn) [lactulose, 4-O-β-D-galactopyranosyl-D-fructofuranose, reference compound] | none | – | similar | – | – | non-significant trend to enhance | increases

Reference: patent EP4559466A1, “MICROBIOTA SIGNATURE TO DETECT FOOD ADDICTION AND TREATMENT THEREOF” (Universitat Pompeu Fabra (UPF), priority 2023, dated 2025)
